Laboratory results as given in patent publication US10611795B2, “Methods for viral inactivation using eco-friendly detergents” (priority 2013, dated 2020).
Values joined by “and” are separate entries in the source; they are usually repeats but may differ in a detail not shown here. Identical values can stand only once. Like-named read-outs stand apart in the source and are kept apart here.

Assays:
[1] = cited from earlier work; for acute EC50: 30 min Photobacterium phosphoreum (marine light-emitting bacteria); for Biodegradability classification in Closed Bottle and Modified OECD Screening Tests: both Closed Bottle and Modified OECD Screening Tests; for EC50: 3 weeks, Selenastrum capricornutum
[2] = tested on: Xenotropic Murine Leukemia Virus (XMuLV); assay type: cell-based; settings: for xMuLV inactivation LRV, Time 0.5 / xMuLV inactivation LRV, Time 1 / xMuLV inactivation LRV, Time 3 / xMuLV inactivation LRV, Time 6 / xMuLV inactivation, in words / xMuLV inactivation LRV, Time 2: 20° C.; for xMuLV inactivation LRV, Time 0.5: 0.5 h; for xMuLV inactivation LRV, Time 1: 1 h; for xMuLV inactivation LRV, Time 3: 3 h; for xMuLV inactivation LRV, Time 6: 6 h; for xMuLV inactivation, in words: detergent or solvent alone; for xMuLV inactivation LRV, Time 2: 2 h; for XMuLV LRV: rProtein1 CaptoAdhere Pool, Room Temperature
[3] = EHS evaluation: basic physical and toxicological characteristics from manufacturer and government literature; settings: not solid due to the algal and fish data
[4] = Detergent mixing turbidity analysis (average absorbance 340-360 nm); assay type: physicochemical; settings: MAb1 HCCF
[5] = Turbidity after detergent exposure; assay type: physicochemical; settings: MAb3 HCCF and MAb3 MSS pool, three hours
[6] = tested on: bovine viral diarrhea virus (BVDV); experiment: BVDV inactivation, plaque assay with BT indicator cells (LRV); assay type: cell-based; settings: rProtein 2 HCCF, 0.3% Detergent, 20° C., Run 1, Run 2
[7] = MAb1 HCCF, listed as 1% Polysorbate 20
[8] = MAb1 HCCF, listed as 2% Polysorbate 20
[9] = various (12 species) marine microalgae, 10-12 d
[10] = ~2 d, Sphaerechinus granularis, sea urchin embryo-larval test, marine
[11] = MAb1 HCCF, listed as 0.03M caprylate pH 4.5
[12] = MAb1 HCCF, listed as 0.03M caprylate pH 7.6
[13] = MAb1 HCCF, listed as 0.1M caprylate pH 5.0
[14] = MAb1 HCCF, listed as 0.1M caprylate pH 7.6
[15] = MAb1 Protein A pool, listed as 1% Polysorbate 80
[16] = MAb1 Protein A pool, listed as 2% Polysorbate 80

Which results are given for `CCCCCCOC1OC(CO)C(O)C(O)C1O` (stereo not drawn) [Alkylglucosides C6]?
acute EC50 [1]: EC50: C6 = 490 mg/l; C8 =; Biodegradability classification in Closed Bottle and Modified OECD Screening Tests [1]: C10 and C12) are readily

What does the source list for `CCCCCCCCOC1OC(CO)C(O)C(O)C1O` (stereo not drawn) [Alkylglucosides C8]?
acute EC50 [1]: 11.7 µg/mL; Biodegradability classification in Closed Bottle and Modified OECD Screening Tests [1]: C10 and C12) are readily

With `CCCCCCCCCCCC(=O)NCCC[N+](C)(C)CC(=O)[O-]` [lauramidopropyl betaine] as the compound, how does the Biodegradability classification ([1]; as stated in the Biodegradability column, no single test named) read?
The Biodegradability classification was “readily biodegradable”.

With Polysorbate 20 as the compound, how does the “xMuLV inactivation LRV, Time 0.5” value [2, 7] read?
Its value is 1.0.

What about the “xMuLV inactivation LRV, Time 0.5” value [2, 8] of the same compound?
Its value is 0.6.

And the “xMuLV inactivation LRV, Time 1” value [2, 7]?
The value was 1.4.

What about the “xMuLV inactivation LRV, Time 1” value [2, 8] of the same compound?
Its value is 0.7.

What about the “xMuLV inactivation LRV, Time 3” value [2, 7] of the same compound?
Its value is 2.3.

What about the “xMuLV inactivation LRV, Time 3” value [2, 8] of the same compound?
Its value is 2.2.

What about the “xMuLV inactivation LRV, Time 6” value [2, 7] of the same compound?
Its value is 4.5.

What about the “xMuLV inactivation LRV, Time 6” value [2, 8] of the same compound?
Its value is 5.6.

What about the “xMuLV inactivation, in words” value ([2]; MAb1 HCCF) of the same compound?
The value was “less effective”.

What about the “acute LC50” value ([1]; 1 d Artemia sp. (marine)) of the same compound?
The value was “acute LC50 1447 mg/l 1 d”.

And the LC50 ([1]; 1 d Poecilia reticulata, freshwater)?
The LC50 was “LC50 350 mg/l 1 d Poecilia”.

And the “Biodegradability according to Roche's inherent biodegradability test (OECD 302)” value [1]?
The value was “Poor biodegradability”.

And the EC50 ([1]; freshwater)?
Its EC50 is “EC50 ≤100 mg/l 3 weeks”.

And the “acute NOEC” value ([1]; highest tested concentration, limit test, 48 h Daphnia magna, OECD202)?
Its value is “acute NOEC 10 mg/l”.

What about the “chronic NOEC” value ([1]; highest tested concentration, limit test, 21 d Daphnia magna, OECD repro) of the same compound?
Its value is “chronic NOEC 10 mg/l”.

What about the “chronic NOEC” value [1, 9] of the same compound?
The value was “chronic NOEC 10 mg/l”.

What about the “chronic NOEC” value [1, 10] of the same compound?
The value was “chronic NOEC 20 mg/l ~2 d,”.

And the “preliminary acute-based freshwater PNEC” value [3]?
Its value is “freshwater PNEC 0.1 mg/l,”.

For `CCCCCCCCCCOC1OC(CO)C(O)C(O)C1O` (stereo not drawn) [Alkylglucosides C10], which “acute EC50” value [1] is on record?
The value was 7.9 µg/mL.

What about the “Biodegradability classification in Closed Bottle and Modified OECD Screening Tests” value [1] of the same compound?
Its value is “C10 and C12) are readily”.

For `CCCCCCCCCCCCOC1OC(CO)C(O)C(O)C1O` (stereo not drawn) [Alkylglucosides C12], which “acute EC50” value [1] is on record?
Its value is “C12 = 8.8 mg/l), 30 min”.

And the “Biodegradability classification in Closed Bottle and Modified OECD Screening Tests” value [1]?
The value was “C10 and C12) are readily”.

With `CCCCCCCC(=O)O` [caprylate, caprylic acid] as the compound, how does the “turbidity during mixing, after filtration and overnight incubation (FIGS. 2, 3), in words” value [4] read?
The value was “Turbidity increased with the addition and mixing”.

And the “turbidity, in words” value [5]?
Its value is “Significant turbidity”.

What about the “xMuLV inactivation LRV, Time 2” value [2, 11] of the same compound?
Its value is no less than 5.0.

What about the “xMuLV inactivation LRV, Time 2” value [2, 12] of the same compound?
The value was 0.21.

What about the “xMuLV inactivation LRV, Time 2” value [2, 13] of the same compound?
The value was no less than 5.1.

And the “xMuLV inactivation LRV, Time 2” value [2, 14]?
The value was no less than 6.0.

And the “xMuLV inactivation LRV, Time 3” value [2, 11]?
Its value is no less than 5.0.

What about the “xMuLV inactivation LRV, Time 3” value [2, 12] of the same compound?
The value was 0.30.

What about the “xMuLV inactivation LRV, Time 3” value [2, 13] of the same compound?
Its value is no less than 5.1.

What about the “xMuLV inactivation LRV, Time 3” value [2, 14] of the same compound?
The value was no less than 6.0.

For Triton X-100, which “BVDV log reduction value” ([6]; 30 min) is on record?
The value was 5.4 and 5.5.

And the “BVDV log reduction value” ([6]; 60 min)?
Its value is >5.4 and >5.5.

Which results are given for Polysorbate 80?
xMuLV inactivation LRV, Time 1 ([2]; MAb1 HCCF): 3.3; xMuLV inactivation LRV, Time 3 ([2]; MAb1 HCCF): 5.7; xMuLV inactivation, in words ([2]; MAb1 HCCF): less effective; xMuLV inactivation LRV, Time 0.5 [2, 15]: 0.4; xMuLV inactivation LRV, Time 0.5 [2, 16]: 0.7; xMuLV inactivation LRV, Time 1 [2, 15]: 0.9; xMuLV inactivation LRV, Time 1 [2, 16]: 0.7; xMuLV inactivation LRV, Time 2 ([2]; MAb1 Protein A pool): 1.2; xMuLV inactivation LRV, Time 3 [2, 15]: 1.1; xMuLV inactivation LRV, Time 3 [2, 16]: 1.0; XMuLV LRV ([2]; 5 min, Run 1, Run 2): .45; XMuLV LRV ([2]; 10 min, Run 1, Run 2): .57; XMuLV LRV ([2]; 15 min): .82; XMuLV LRV ([2]; 30 min): 2.1; time to effective XMuLV inactivation ([2]; rProtein1 CaptoAdhere pool, room temperature): 1 h; ?NOEC ([1]; 3 weeks Selenastrum capricornutum, printed with question marks): 100 mg/l? 3 weeks; chronic NOEC ([1]; 4 d Gloeocapsa (Cyanobacteria)): chronic NOEC 100 mg/l 4 d; chronic NOEC ([1]; 96 h Tetrahymena pyriformis): chronic NOEC 250 mg/l 96 h; algal NOEC ([1]; Chlorella vulgaris 96 h, freshwater): algal NOEC 2 mg/l; Biodegradability according to Roche's inherent biodegradability test (OECD 302) [1]: Poor biodegradability; algal EC10 (~NOEC) ([1]; Scenedesmus quadricauda 96 h, freshwater): algal EC10 (~NOEC) 6.99 mg/l; EC50 ([1]; freshwater): EC50 ≥100 mg/l, ?NOEC; chronic NOEC [1, 9]: chronic NOEC 10 mg/l; chronic NOEC [1, 10]: chronic NOEC 20 mg/l ~2 d,
